Experimental data reported in patent publication US20120195857A1, “Hepatitis C Virus Inhibitors” (Bristol-Myers Squibb Company, priority 2010, published 2012).
Where two headings read alike, the source gives them in different places.

Tested on: HCV 1b genotype
Test: microbe, parasite or virus in culture
Assay type: cell-based
Conditions: Hepatitis C virus, HCV 1b genotype replicon
Procedure: An HCV Replicon assay was utilized in the present disclosure, and was prepared, conducted and validated as described in commonly owned PCT/US2006/022197 and in O'Boyle et. al. Antimicrob Agents Chemother. 2005 April; 49(4):1346-53. Assay methods incorporating luciferase reporters have also been used as described (Apath.com).
HCV-neo replicon cells and replicon cells containing resistance substitutions in the NSSA region were used to test the currently described family of compounds. […] Ranges are as follows: A =0.5 pM to 10 pM; B=11 pM to 90 pM; C=91 pM to 160 pM; D=[…] to 5 nM.

[1] = read-out: EC50 (Effective 50% inhibitory concentration)

Compound | EC50 (read-out: EC50 Range) | EC50 [1]
COC(=O)N[C@H](C(=O)N1CCC[C@H]1c1ncc(-c2ccc(-c3ccc(-c4cnc([C@@H]5CCCN5C(=O)[C@@H](NC(=O)OC)C5CCOCC5)[nH]4)c4ccccc34)cc2)[nH]1)C1CCOCC1 [Example 2] | 0.011 to 0.09 nM | –
COC(=O)N[C@H](C(=O)N1[C@@H]2C[C@@H]2C[C@H]1c1ncc(-c2ccc(-c3ccc(-c4cnc([C@@H]5C[C@H]6C[C@H]6N5C(=O)[C@@H](NC(=O)OC)C5CCOCC5)[nH]4)c4c3CCC4)cc2)[nH]1)C1CCOCC1 [Example 4] | 0.011 to 0.09 nM | –
COC(=O)NC(C(=O)N1[C@@H]2C[C@@H]2C[C@H]1c1ncc(-c2ccc(-c3cc(-c4cnc([C@@H]5C[C@H]6C[C@H]6N5C(=O)[C@@H](NC(=O)OC)C(C)C)[nH]4)cc4c3CCC4)cc2)[nH]1)C(C)C (some centres unmarked) [Example 5] | 0.091 to 0.16 nM | –
COC(=O)N[C@H](C(=O)N1[C@@H](C)CC[C@H]1c1ncc(-c2ccc(-c3ccc(-c4coc([C@@H]5CC[C@H](C)N5C(=O)[C@@H](NC(=O)OC)C5CCOCC5)n4)c4c3CCC4)cc2)[nH]1)C1CCOCC1 [Example 7] | 0.091 to 0.16 nM | 0.0942 nM
COC(=O)N[C@H](C(=O)N1[C@@H]2C[C@@H]2C[C@H]1c1ncc(-c2ccc(-c3ccc(-c4cnc([C@@H]5C[C@H]6C[C@H]6N5C(=O)[C@@H](NC(=O)OC)C(C)C)[nH]4)c4nc[nH]c34)cc2)[nH]1)C(C)C [Example 12] | 0.011 to 0.09 nM | 0.0409 nM
COC(=O)N[C@H](C(=O)N1[C@@H]2C[C@@H]2C[C@H]1c1ncc(-c2ccc(-c3ccc(-c4cnc([C@@H]5C[C@H]6C[C@H]6N5C(=O)[C@@H](NC(=O)OC)C5CCOCC5)[nH]4)c4nc[nH]c34)cc2)[nH]1)C1CCOCC1 [Example 13] | 0.161 to 5 nM | 4.18 nM
COC(=O)N[C@H](C(=O)N1[C@@H](C)CC[C@H]1c1ncc(-c2ccc(-c3ccc(-c4cnc([C@@H]5CC[C@H](C)N5C(=O)[C@@H](NC(=O)OC)C5CCOCC5)[nH]4)c4nc[nH]c34)cc2)[nH]1)C1CCOCC1 [Example 14] | 0.161 to 5 nM | –
COC(=O)N[C@H](C(=O)N1[C@@H]2C[C@@H]2C[C@H]1c1nc(-c2ccc(-c3ccc(-c4ccc(-c5c[nH]c([C@@H]6C[C@H]7C[C@H]7N6C(=O)[C@@H](NC(=O)OC)C(C)C)n5)cc4)c4[nH]ccc34)cc2)c[nH]1)C(C)C [Example 18] | – | 0.00274 nM
